Source: the kinase profiling compilation of Christmann-Franck et al. (2016)

Columns and labels:
Test in all cases: radiometric filter-binding kinase assay
[1] = target: PIM2 (human) (UniProt Q9P1W9)
[2] = target: MAPK8 (human) (UniProt P45983)
[3] = target: MAPKAPK3 (human) (UniProt Q16644)
[4] = target: PIM1 (human) (UniProt P11309)
[5] = target: PAK4 (human) (UniProt O96013)
[6] = target: TAOK1 (human) (UniProt Q7L7X3)
[7] = target: ULK1 (human) (UniProt O75385)
[8] = target: EEF2K (human) (UniProt O00418)
[9] = target: MAP2K2 (human) (UniProt P36507)
[10] = target: PIM3 (human) (UniProt Q86V86)
[11] = target: CSNK2A1 (human) (UniProt P68400)
[12] = target: NTRK1 (human) (UniProt P04629); conditions: compound 10.0 µM
[13] = target: CAMKK2 (human) (UniProt Q96RR4)
[14] = target: EPHB1 (human) (UniProt P54762)
[15] = target: INSRR (human) (UniProt P14616)
[16] = target: BRSK2 (human) (UniProt Q8IWQ3)
[17] = target: EIF2AK3 (human) (UniProt Q9NZJ5)
[18] = tested on: AKT2 (human), P31751 [S474D]
[19] = target: HIPK1 (human) (UniProt Q86Z02)
[20] = target: MST4 (human) (UniProt Q9P289)
[21] = target: MAPK14 (human) (UniProt Q16539)
[22] = target: SIK2 (human) (UniProt Q9H0K1)
[23] = target: RPS6KA1 KD1 KD2 (human) (UniProt Q15418)
[24] = target: ERBB4 (human) (UniProt Q15303)
[25] = target: NEK6 (human) (UniProt Q9HC98)
[26] = target: MAPK12 (human) (UniProt P53778)
[27] = tested on: SGK1 (human), O00141 [S422D]
[28] = target: HIPK3 (human) (UniProt Q9H422); conditions: compound 1.0 µM
[29] = target: MAPK15 (human) (UniProt Q8TD08)
[30] = target: MKNK2 (human) (UniProt Q9HBH9)
[31] = target: GSK3B (human) (UniProt P49841)
[32] = target: DYRK1A (human) (UniProt Q13627); conditions: compound 1.0 µM

Sequence of INSRR (human) (P14616 whole entry, looked up): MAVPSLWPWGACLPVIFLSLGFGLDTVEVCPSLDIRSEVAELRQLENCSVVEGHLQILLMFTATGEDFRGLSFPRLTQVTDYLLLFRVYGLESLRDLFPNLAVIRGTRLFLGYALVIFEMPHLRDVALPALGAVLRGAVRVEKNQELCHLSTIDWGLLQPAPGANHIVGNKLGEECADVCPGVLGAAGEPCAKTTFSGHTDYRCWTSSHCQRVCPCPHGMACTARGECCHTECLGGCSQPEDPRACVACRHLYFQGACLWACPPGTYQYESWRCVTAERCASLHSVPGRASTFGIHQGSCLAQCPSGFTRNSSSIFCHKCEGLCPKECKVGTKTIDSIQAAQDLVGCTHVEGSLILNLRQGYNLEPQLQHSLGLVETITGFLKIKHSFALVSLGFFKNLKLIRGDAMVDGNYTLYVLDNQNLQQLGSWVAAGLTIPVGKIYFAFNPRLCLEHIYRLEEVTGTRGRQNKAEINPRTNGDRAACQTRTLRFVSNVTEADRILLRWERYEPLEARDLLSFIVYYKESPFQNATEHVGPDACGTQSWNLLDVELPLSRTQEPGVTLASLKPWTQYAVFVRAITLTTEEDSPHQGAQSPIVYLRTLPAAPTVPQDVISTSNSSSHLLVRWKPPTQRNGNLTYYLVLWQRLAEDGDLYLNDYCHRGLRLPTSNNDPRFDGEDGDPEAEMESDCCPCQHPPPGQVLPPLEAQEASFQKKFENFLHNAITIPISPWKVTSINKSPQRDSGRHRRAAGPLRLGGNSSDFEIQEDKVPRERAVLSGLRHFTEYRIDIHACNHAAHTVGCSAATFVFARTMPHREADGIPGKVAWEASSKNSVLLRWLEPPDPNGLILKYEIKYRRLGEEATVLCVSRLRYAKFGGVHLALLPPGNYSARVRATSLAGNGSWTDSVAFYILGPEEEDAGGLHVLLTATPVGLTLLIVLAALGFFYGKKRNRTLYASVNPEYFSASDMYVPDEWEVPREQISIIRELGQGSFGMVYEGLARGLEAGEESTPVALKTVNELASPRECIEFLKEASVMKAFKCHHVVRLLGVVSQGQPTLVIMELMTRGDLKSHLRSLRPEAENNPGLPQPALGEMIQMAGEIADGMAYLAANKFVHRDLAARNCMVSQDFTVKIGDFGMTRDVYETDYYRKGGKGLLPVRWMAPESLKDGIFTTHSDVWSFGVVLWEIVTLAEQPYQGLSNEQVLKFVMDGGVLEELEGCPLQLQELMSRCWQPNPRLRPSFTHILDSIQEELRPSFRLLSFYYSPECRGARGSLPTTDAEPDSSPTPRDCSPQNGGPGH
Sequence of CSNK2A1 (human) (P68400 whole entry, looked up): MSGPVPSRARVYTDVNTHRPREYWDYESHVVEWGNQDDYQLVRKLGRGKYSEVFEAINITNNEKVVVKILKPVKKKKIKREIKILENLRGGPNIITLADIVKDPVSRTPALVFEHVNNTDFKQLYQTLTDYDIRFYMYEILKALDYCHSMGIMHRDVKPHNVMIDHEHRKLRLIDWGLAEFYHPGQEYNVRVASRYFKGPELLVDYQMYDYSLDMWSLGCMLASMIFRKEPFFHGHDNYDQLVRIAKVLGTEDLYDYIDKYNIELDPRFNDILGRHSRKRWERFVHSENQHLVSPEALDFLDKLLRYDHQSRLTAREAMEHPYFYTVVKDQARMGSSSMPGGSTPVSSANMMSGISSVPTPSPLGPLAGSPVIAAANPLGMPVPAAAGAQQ
Sequence of CAMKK2 (human) (Q96RR4 whole entry, looked up): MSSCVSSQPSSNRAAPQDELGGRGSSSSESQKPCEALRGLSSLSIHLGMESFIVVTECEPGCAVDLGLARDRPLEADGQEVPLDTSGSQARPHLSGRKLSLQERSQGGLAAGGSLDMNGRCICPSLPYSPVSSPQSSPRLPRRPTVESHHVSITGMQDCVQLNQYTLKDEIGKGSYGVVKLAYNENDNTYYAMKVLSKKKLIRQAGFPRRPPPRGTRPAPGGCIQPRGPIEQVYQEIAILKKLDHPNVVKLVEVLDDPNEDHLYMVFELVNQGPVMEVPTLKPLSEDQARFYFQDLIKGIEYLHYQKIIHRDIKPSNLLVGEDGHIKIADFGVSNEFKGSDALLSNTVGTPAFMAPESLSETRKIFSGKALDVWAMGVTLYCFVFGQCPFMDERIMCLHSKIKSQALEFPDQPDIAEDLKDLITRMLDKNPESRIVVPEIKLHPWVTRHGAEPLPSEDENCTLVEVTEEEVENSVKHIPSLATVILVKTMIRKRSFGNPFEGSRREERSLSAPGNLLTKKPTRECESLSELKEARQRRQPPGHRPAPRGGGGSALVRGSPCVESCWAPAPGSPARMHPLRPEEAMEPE
Sequence of MAPK15 (human) (Q8TD08 whole entry, looked up): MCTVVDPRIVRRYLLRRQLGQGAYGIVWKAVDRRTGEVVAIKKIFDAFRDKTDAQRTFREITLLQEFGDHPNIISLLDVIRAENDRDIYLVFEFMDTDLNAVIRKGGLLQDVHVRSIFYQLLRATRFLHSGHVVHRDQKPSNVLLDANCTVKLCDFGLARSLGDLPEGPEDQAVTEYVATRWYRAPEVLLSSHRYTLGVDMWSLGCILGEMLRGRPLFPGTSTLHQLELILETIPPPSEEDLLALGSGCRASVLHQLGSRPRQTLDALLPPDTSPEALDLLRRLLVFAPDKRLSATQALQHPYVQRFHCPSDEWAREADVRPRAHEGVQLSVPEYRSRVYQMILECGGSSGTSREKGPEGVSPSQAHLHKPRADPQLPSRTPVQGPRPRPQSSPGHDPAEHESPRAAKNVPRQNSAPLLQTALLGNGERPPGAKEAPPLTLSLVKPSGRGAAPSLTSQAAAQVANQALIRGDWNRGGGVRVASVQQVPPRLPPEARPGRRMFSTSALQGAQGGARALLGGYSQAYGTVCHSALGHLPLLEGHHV
Sequence of PIM2 (human) (Q9P1W9 whole entry, looked up): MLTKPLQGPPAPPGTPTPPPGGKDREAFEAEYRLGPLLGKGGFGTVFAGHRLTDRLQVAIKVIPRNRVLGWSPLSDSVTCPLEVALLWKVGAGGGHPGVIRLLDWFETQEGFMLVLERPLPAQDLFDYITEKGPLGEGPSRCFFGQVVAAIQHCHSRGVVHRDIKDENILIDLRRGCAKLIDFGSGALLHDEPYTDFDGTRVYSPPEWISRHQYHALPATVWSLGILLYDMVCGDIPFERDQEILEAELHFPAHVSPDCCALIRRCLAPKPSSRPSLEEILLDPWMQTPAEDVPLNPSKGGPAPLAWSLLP
Sequence of MAPK14 (human) (Q16539 whole entry, looked up): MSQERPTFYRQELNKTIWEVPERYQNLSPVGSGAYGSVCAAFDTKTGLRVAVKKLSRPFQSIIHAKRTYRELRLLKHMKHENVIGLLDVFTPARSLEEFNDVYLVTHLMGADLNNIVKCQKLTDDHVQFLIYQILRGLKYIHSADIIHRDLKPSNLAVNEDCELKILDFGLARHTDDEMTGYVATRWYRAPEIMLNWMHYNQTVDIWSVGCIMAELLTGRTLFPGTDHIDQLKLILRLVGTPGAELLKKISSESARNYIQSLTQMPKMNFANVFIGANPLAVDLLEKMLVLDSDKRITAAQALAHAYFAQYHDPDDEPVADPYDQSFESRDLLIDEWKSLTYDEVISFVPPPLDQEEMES
Sequence of MAPK12 (human) (P53778 whole entry, looked up): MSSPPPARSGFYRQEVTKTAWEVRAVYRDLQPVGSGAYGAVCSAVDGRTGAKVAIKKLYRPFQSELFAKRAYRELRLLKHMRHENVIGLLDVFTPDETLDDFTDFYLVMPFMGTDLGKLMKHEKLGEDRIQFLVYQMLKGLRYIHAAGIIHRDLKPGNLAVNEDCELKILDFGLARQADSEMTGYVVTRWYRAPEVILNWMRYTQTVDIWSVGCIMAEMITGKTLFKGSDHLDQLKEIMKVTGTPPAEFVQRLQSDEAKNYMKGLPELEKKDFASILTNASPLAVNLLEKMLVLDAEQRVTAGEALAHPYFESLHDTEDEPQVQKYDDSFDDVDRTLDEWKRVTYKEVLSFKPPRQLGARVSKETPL
Sequence of EIF2AK3 (human) (Q9NZJ5 whole entry, looked up): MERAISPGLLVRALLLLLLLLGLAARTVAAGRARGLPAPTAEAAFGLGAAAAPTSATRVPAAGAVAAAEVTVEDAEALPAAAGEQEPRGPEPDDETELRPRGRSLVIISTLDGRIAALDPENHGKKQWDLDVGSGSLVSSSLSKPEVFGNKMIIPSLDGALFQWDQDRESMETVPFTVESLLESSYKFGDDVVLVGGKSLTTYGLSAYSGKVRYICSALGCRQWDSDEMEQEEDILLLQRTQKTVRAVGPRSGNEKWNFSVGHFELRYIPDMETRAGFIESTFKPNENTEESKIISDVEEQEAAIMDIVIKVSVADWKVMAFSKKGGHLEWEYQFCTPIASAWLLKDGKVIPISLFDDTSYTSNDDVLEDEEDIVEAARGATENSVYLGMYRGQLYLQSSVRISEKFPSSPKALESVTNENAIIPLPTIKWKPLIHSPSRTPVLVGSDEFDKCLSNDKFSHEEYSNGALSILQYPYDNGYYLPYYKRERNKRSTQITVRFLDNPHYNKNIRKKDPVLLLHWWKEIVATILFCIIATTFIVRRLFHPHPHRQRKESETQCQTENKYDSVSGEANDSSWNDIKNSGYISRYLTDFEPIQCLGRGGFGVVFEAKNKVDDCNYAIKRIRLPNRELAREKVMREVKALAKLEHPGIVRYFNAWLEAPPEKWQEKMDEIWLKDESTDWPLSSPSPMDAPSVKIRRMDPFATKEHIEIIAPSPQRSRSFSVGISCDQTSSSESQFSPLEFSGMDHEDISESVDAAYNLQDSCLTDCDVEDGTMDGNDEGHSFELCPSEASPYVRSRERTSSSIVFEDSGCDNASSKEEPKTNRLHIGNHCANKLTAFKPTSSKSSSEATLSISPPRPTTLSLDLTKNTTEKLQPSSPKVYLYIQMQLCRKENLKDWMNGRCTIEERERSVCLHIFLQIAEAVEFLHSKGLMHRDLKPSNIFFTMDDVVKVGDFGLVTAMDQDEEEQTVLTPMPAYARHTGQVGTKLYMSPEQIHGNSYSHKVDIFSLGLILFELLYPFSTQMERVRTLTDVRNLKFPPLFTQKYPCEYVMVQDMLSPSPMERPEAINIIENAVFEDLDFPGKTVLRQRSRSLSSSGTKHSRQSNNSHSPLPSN

Question: For `CNc1nc(Nc2ccc(C(=O)N3CCOCC3)cc2OC)ncc1Cl`, which residual activity ([1]; compound 1.0 µM) is on record?
Answer: 94%

Question: And the residual activity ([1]; compound 10.0 µM)?
Answer: 97%

Question: What about the residual activity ([2]; compound 1.0 µM) of the same compound?
Answer: 89%

Question: What about the residual activity ([2]; compound 10.0 µM) of the same compound?
Answer: 37%

Question: What about the residual activity ([3]; compound 1.0 µM) of the same compound?
Answer: 120%

Question: And the residual activity ([3]; compound 10.0 µM)?
Answer: 81%

Question: What about the residual activity ([4]; compound 1.0 µM) of the same compound?
Answer: 96%

Question: And the residual activity ([4]; compound 10.0 µM)?
Answer: 99%

Question: What about the residual activity ([5]; compound 1.0 µM) of the same compound?
Answer: 87%

Question: And the residual activity ([5]; compound 10.0 µM)?
Answer: 84%

Question: What about the residual activity ([6]; compound 1.0 µM) of the same compound?
Answer: 81%

Question: And the residual activity ([6]; compound 10.0 µM)?
Answer: 93%

Question: What about the residual activity ([7]; compound 1.0 µM) of the same compound?
Answer: 62%

Question: What about the residual activity ([7]; compound 10.0 µM) of the same compound?
Answer: 85%

Question: What about the residual activity ([8]; compound 1.0 µM) of the same compound?
Answer: 83%

Question: And the residual activity ([8]; compound 10.0 µM)?
Answer: 86%

Question: And the residual activity ([9]; compound 1.0 µM)?
Answer: 91%

Question: What about the residual activity ([9]; compound 10.0 µM) of the same compound?
Answer: 86%

Question: What about the residual activity ([10]; compound 1.0 µM) of the same compound?
Answer: 77%

Question: And the residual activity ([10]; compound 10.0 µM)?
Answer: 72%

Question: And the residual activity ([11]; compound 1.0 µM)?
Answer: 50%

Question: What about the residual activity ([11]; compound 10.0 µM) of the same compound?
Answer: 88%

Question: What about the residual activity [12] of the same compound?
Answer: 87%

Question: What about the residual activity ([13]; compound 1.0 µM) of the same compound?
Answer: 52%

Question: What about the residual activity ([13]; compound 10.0 µM) of the same compound?
Answer: 31%

Question: What about the residual activity ([14]; compound 1.0 µM) of the same compound?
Answer: 115%

Question: And the residual activity ([14]; compound 10.0 µM)?
Answer: 86%

Question: What about the residual activity ([15]; compound 1.0 µM) of the same compound?
Answer: 126%

Question: What about the residual activity ([15]; compound 10.0 µM) of the same compound?
Answer: 97%

Question: And the residual activity ([16]; compound 1.0 µM)?
Answer: 78%

Question: What about the residual activity ([16]; compound 10.0 µM) of the same compound?
Answer: 64%

Question: What about the residual activity ([17]; compound 1.0 µM) of the same compound?
Answer: 99%

Question: What about the residual activity ([17]; compound 10.0 µM) of the same compound?
Answer: 97%

Question: What about the residual activity ([18]; compound 1.0 µM) of the same compound?
Answer: 95%

Question: And the residual activity ([18]; compound 10.0 µM)?
Answer: 64%

Question: And the residual activity ([19]; compound 1.0 µM)?
Answer: 77%

Question: What about the residual activity ([19]; compound 10.0 µM) of the same compound?
Answer: 94%

Question: And the residual activity ([20]; compound 1.0 µM)?
Answer: 101%

Question: And the residual activity ([20]; compound 10.0 µM)?
Answer: 106%

Question: And the residual activity ([21]; compound 1.0 µM)?
Answer: 71%

Question: What about the residual activity ([21]; compound 10.0 µM) of the same compound?
Answer: 93%

Question: What about the residual activity ([22]; compound 1.0 µM) of the same compound?
Answer: 49%

Question: What about the residual activity ([22]; compound 10.0 µM) of the same compound?
Answer: 47%

Question: What about the residual activity ([23]; compound 1.0 µM) of the same compound?
Answer: 87%

Question: And the residual activity ([23]; compound 10.0 µM)?
Answer: 54%

Question: And the residual activity ([24]; compound 1.0 µM)?
Answer: 89%

Question: What about the residual activity ([24]; compound 10.0 µM) of the same compound?
Answer: 94%

Question: And the residual activity ([25]; compound 1.0 µM)?
Answer: 73%

Question: And the residual activity ([25]; compound 10.0 µM)?
Answer: 69%

Question: And the residual activity ([26]; compound 1.0 µM)?
Answer: 88%

Question: And the residual activity ([26]; compound 10.0 µM)?
Answer: 94%

Question: What about the residual activity ([27]; compound 1.0 µM) of the same compound?
Answer: 94%

Question: What about the residual activity ([27]; compound 10.0 µM) of the same compound?
Answer: 91%

Question: What about the residual activity [28] of the same compound?
Answer: 85%

Question: And the residual activity ([29]; compound 1.0 µM)?
Answer: 74%

Question: What about the residual activity ([29]; compound 10.0 µM) of the same compound?
Answer: 82%

Question: What about the residual activity ([30]; compound 1.0 µM) of the same compound?
Answer: 20%

Question: What about the residual activity ([30]; compound 10.0 µM) of the same compound?
Answer: 7%

Question: What about the residual activity ([31]; compound 1.0 µM) of the same compound?
Answer: 100%

Question: And the residual activity ([31]; compound 10.0 µM)?
Answer: 98%

Question: And the residual activity [32]?
Answer: 79%
